For test [1], the target named is T1, centromeric protein E (CENP-E) (Homo sapiens, UniProt Q02224).
T1 sequence (Q02224 6-329 limits assumed): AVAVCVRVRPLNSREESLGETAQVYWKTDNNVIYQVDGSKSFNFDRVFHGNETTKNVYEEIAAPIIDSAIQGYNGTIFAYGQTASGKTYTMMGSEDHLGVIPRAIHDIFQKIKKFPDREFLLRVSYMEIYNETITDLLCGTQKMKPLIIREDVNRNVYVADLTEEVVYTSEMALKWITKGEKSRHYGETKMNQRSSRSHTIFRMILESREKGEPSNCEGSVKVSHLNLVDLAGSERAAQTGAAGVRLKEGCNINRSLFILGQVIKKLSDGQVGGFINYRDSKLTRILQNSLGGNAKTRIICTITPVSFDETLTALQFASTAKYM
Put plainly: Kinesin ATPase selectivity panel, CENP-E. Particulars: panel of mitotic kinesins; data not shown. The class given is biochemical.

Test [2] addresses mammalian centromere-associated kinesin (MCAK) (Homo sapiens, UniProt Q99661). Put plainly: Kinesin ATPase selectivity panel, MCAK. The test is classed as biochemical. Particulars: panel of mitotic kinesins; data not shown.
The next test concerns HeLa cells. Put plainly: Phenotypic assay in cultured HeLa cells. The class given is cell-based, human. The conditions noted are these: 1 μM compound.
The subject of test [3] is other kinesin family members. The conditions noted are these: cited from earlier work.
In another test the test system is chromokinesin. The conditions noted are these: panel of mitotic kinesins; data not shown.
A further test has as its system NCI60 tumor panel. Put plainly: NCI60 tumor panel growth inhibition. The conditions noted are these: for GI50: read-out: Average GI50 in leukemia and colon tumor cell lines.
Another test has as its system M14. The test can be described thus: NCI60 growth inhibition, M14. The class given is cell-based. The conditions noted are these: melanoma M14, GI50.

Each structure is given as a SMILES string.

Sequence of mammalian centromere-associated kinesin (MCAK) (Q99661 258-588 limits assumed): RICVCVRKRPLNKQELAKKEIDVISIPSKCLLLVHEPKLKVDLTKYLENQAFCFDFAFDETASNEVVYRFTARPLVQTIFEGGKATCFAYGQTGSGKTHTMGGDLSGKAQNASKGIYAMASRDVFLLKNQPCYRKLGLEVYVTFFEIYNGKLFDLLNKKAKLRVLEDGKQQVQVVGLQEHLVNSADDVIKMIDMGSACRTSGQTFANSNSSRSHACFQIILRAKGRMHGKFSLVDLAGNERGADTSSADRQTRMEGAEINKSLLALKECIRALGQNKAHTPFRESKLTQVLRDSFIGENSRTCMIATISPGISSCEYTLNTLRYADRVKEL

For `N[C@H](CO)CSC(c1ccccc1)(c1ccccc1)c1ccccc1` [Compound 4, (R)-2-amino-3-(tritylthio)propan-1-ol], the “Inhibitory activity against CENP-E” value in test [1] was “no measurable inhibition detected”. In addition, the “Inhibitory activity against MCAK” value in test [2] is given as “no measurable inhibition detected”. In addition, in the test with HeLa cells, the Interphase microtubule morphology result is listed as “normal”.
In the case of `N[C@@H](CSC(c1ccccc1)(c1ccccc1)c1ccccc1)C(=O)O` [Compound 1, S-trityl-L-cysteine], in test [3], the “Activity against other kinesin family members” value is given as “no activity”.
As to `COc1ccc(C(SC[C@H](N)CO)(c2ccccc2)c2ccccc2)cc1` [Compound 5, (R)-2-amino-3-((4-methoxyphenyl)diphenylmethylthio)propan-1-ol], the “Inhibitory activity against CENP-E” value in test [1] is “no measurable inhibition detected”. The “Inhibitory activity against chromokinesin” value with chromokinesin was “no measurable inhibition detected”. Also, in test [2], the “Inhibitory activity against MCAK” value is listed as “no measurable inhibition detected”. Besides, the GI50 in the test on NCI60 tumor panel is at most 0.23 µM. In the test with HeLa cells, the Interphase microtubule morphology result is “normal”.
With `COc1ccc(C(SCCN)(c2ccccc2)c2ccccc2)cc1` [Compound 7], the “Fold increase in activity over monastrol” value in the test on M14 came to 1200 fold. Moreover, in the test with NCI60 tumor panel (NCI60 panel GI50), the “Average fold increase in potency over 1” value is reported as around 35 fold and the “Average fold increase in potency over Monastrol” value is recorded as around 143 fold. For the same compound, the concentration for 50% growth inhibition (GI50) in the test with NCI60 tumor panel is at most 0.23 µM. Besides, the Interphase microtubule morphology result in the test on HeLa cells is “normal”.

The term GI50 denotes the concentration at which growth is held to half of that of the control.

Source of the values: PMC3171608 (Bioorganic & medicinal chemistry, 2011).
